Source: patent US20070225171A1 (priority 2001, published 2007)
Like-named read-outs stand apart in the source and are kept apart here.

What was measured:
[1] = tested on: Plants expressing the dioxygenase encoded by the tfdA gene; settings: reported in Llewellyn and Last 1996 and U.S. Pat. Nos. 6,100,446 and 6,153,401; cited from earlier work
[2] = tested on: Plants expressing the dioxygenase encoded by the tfdA gene; experiment: Herbicide tolerance of plants expressing the tfdA dioxygenase; format: in vivo; settings: at lower levels of herbicide than for 2,4-D; data not shown
Description: See, e.g., Llewellyn and Last, in Herbicide-Resistant Crops Chapter 10, pages 159-174 (Duke, ed., CRC Lewis Publishers 1996). Preferably, additional bacterial codons of the tfdA coding sequence are replaced by plant-preferred codons to obtain better expression of the encoded dioxygenase. […] See, e.g., Llewellyn and Last, in Herbicide-Resistant Crops Chapter 10, pages 159-174 (Duke, ed., CRC Lewis Publishers 1996) and U.S. Pat. Nos. 6,100,446 and 6,153,401.

[3] = tested on: Transgenic cotton plants (transformed with tfdA gene); experiment: Seed cotton yield after spraying 2,4-D amine on transgenic cotton; format: in vivo; settings: for SEED COTTON YIELD: herbicide rate 1 lb/acre, average of 4 replications
Procedure: Transgenic cotton plants (transformed as described in Bayley et al., Theor. Appl. Genet., 83:645-649 (1992)) were grown from transgenic seed obtained from USDA, Lubbock, Tex. The cotton plants were sprayed with 2,4-D amine at 1 lb of active ingredient per acre.

Compound: O=C(O)COc1ccc(Cl)cc1 [4-CPA, 4-chlorophenoxyacetic acid]
- tolerance of plants to the herbicide [1]: tolerant

Compound: Cc1cc(Cl)ccc1OCC(=O)O [MCPA, 2-methyl-4-chlorophenoxyacetic acid]
- tolerance of plants to the herbicide [2]: tolerant

Compound: O=C(O)COc1cc(Cl)c(Cl)cc1Cl [2,4,5-T, 2,4,5-trichlorophenoxyacetic acid]
- tolerance of plants to the herbicide [1]: not to be tolerant

Compound: CNC.O=C(O)COc1ccc(Cl)cc1Cl [2,4-D amine]
- effect on yield of cotton ([3]; 1 lb of active ingredient per acre): significantly increased the yield of cotton
- PERCENT INCREASE, AVERAGE ([3]; average of the seven cotton lines, 1 lb/acre vs rate 0): 13.0
- PERCENT INCREASE ([3]; cotton line X-2600, 1 lb/acre vs rate 0): 8.0
- SEED COTTON YIELD ([3]; cotton line X-2600): 2145 Pounds/acre
- PERCENT INCREASE ([3]; cotton line X-2603, 1 lb/acre vs rate 0): 7.4
- SEED COTTON YIELD ([3]; cotton line X-2603): 2790 Pounds/acre
- PERCENT INCREASE ([3]; cotton line X-2606, 1 lb/acre vs rate 0): 19.5
- SEED COTTON YIELD ([3]; cotton line X-2606): 3067 Pounds/acre
- PERCENT INCREASE ([3]; cotton line X-2609, 1 lb/acre vs rate 0): −1.1
- SEED COTTON YIELD ([3]; cotton line X-2609): 2301 Pounds/acre
- PERCENT INCREASE ([3]; cotton line X-2614, 1 lb/acre vs rate 0): 33.6
- SEED COTTON YIELD ([3]; cotton line X-2614): 2660 Pounds/acre
- PERCENT INCREASE ([3]; cotton line X-2615, 1 lb/acre vs rate 0): 15.3
- SEED COTTON YIELD ([3]; cotton line X-2615): 2380 Pounds/acre
- PERCENT INCREASE ([3]; cotton line X-2619, 1 lb/acre vs rate 0): 8.7
- SEED COTTON YIELD ([3]; cotton line X-2619): 2235 Pounds/acre

Compound: O=C(O)CCCOc1ccc(Cl)cc1Cl [2,4-DB, 2,4-dichlorophenoxybutyric acid]
- tolerance of plants to the herbicide [2]: tolerant
